Like-named read-outs stand apart in the source and are kept apart here.
Legend:
Format in all cases: biochemical
CDK2/CCNE1 = CDK2/CCNE1 (Homo sapiens, UniProt P24941); test: CDK2 homogeneous time-resolved fluorescence (HTRF) kinase assay; conditions: CDK2/CCNE
Outline: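 TR-FRET read-out (665 nm, or 665/615 ratio) of Eu-antibody detection of phospho-4E-BP1 (Thr37/46) ULight peptide. Enzyme 3 nM, ATP 1 mM, peptide 50 nM, 1% DMSO; 60 min reaction at 23 °C after 20 min compound preincubation. IC50 from 11-point half-log titrations, top typically 10 μM.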

CDK1/CCNB1 = CDK1/CCNB1 (Homo sapiens, UniProt P06493); test: CDK1 homogeneous time-resolved fluorescence (HTRF) kinase assay; conditions: CDK1/CCNB
Outline: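 High-ATP (1 mM) HTRF assay with 0.5 nM CDK1/cyclin B1 and 50 nM ULight-4E-BP1 (Thr37/46) substrate, 60 min at 23 °C after 20-min compound preincubation. IC50 values come from dose-response curves.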

CDK4/CCND3 = CDK4/CCND3 (Homo sapiens, UniProt P11802); test: CDK4 homogeneous time-resolved fluorescence (HTRF) kinase assay; conditions: CDK4/CCND
Outline: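 IC50 values were derived from 11-point half-log dilutions, usually starting at 10 μM. Compound was first held for 20 min at 23 °C with 1.5 nM CDK4/CCND3. 1 mM ATP and 50 nM ULight-eIF4E-BP1 (Thr37/46) substrate were then added for 60 min, and the TR-FRET 665 nm signal was measured after EDTA stop and Eu-anti-phospho-4E-BP1 detection.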

CDK6/CCND1 = CDK6/CCND1 (Homo sapiens, UniProt Q00534); test: CDK6 homogeneous time-resolved fluorescence (HTRF) kinase assay; conditions: CDK6/CCND, 1 mM ATP
Outline: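 Recombinant CDK6/CCND1 (1 nM final) was preincubated with compound for 20 min at 23 °C in HEPES buffer with MgCl2, EGTA, DTT and Tween 20. Kinase reaction then ran 60 min at 23 °C with 1 mM ATP and 50 nM ULight-4E-BP1 (Thr37/46) peptide, and was stopped with EDTA.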

[1] = <25 nM, read-out: CDK2/CCNE IC50, <25 nM
[2] = >250 nM, read-out: CDK1/CCNB IC50 >250 nM
[3] = 25-250 nM, read-out: CDK4/CCND IC50, 25-250 nM
[4] = >250 nM, read-out: CDK6/CCND IC50, >250 nM
[5] = 25-250 nM, read-out: CDK6/CCND IC50, 25-250 nM
[6] = 25-250 nM, read-out: CDK1/CCNB IC50, 25-250 nM
[7] = >250 nM, read-out: CDK4/CCND IC50, >250 nM
[8] = 25-250 nM, read-out: CDK2/CCNE IC50, 25-250 nM

Sequence of CDK1/CCNB1 (P06493 whole entry): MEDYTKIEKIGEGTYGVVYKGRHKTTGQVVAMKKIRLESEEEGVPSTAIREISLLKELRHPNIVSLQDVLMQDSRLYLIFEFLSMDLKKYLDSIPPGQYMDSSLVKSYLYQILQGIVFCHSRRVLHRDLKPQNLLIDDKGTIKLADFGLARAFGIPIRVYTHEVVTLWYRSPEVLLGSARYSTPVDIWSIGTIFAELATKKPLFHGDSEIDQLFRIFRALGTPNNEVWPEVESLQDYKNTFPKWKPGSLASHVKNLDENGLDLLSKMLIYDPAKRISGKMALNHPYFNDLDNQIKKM
Sequence of CDK1/CCNB1 (P14635 whole entry partner): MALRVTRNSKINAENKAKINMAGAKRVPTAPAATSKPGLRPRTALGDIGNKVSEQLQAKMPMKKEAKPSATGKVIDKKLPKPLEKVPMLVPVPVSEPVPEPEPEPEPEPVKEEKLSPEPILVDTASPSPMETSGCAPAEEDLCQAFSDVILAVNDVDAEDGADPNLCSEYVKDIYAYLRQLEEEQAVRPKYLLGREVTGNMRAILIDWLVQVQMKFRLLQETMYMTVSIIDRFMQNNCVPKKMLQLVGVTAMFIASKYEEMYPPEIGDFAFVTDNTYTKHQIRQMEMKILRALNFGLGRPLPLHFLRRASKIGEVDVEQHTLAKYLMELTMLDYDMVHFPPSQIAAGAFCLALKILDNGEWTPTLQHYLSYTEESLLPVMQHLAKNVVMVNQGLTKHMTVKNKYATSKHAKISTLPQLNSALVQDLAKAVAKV
Sequence of CDK6/CCND1 (Q00534 whole entry): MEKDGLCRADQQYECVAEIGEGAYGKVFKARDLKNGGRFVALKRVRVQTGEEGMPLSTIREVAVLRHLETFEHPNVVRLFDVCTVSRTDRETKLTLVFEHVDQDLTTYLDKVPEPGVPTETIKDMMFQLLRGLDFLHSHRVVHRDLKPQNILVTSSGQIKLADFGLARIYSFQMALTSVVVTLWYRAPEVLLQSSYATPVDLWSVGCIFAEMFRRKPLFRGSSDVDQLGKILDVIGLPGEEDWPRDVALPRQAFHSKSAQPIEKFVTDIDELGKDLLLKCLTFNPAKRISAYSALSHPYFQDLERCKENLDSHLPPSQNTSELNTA
Sequence of CDK6/CCND1 (P24385 whole entry partner): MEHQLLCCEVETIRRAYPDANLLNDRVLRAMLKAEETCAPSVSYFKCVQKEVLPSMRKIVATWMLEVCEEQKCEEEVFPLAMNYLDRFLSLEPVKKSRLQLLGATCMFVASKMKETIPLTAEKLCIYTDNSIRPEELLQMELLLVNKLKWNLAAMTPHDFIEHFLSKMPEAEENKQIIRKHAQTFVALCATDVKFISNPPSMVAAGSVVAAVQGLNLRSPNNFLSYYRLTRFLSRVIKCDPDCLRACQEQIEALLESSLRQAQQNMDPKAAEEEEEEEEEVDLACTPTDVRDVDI
Sequence of CDK4/CCND3 (P11802 whole entry): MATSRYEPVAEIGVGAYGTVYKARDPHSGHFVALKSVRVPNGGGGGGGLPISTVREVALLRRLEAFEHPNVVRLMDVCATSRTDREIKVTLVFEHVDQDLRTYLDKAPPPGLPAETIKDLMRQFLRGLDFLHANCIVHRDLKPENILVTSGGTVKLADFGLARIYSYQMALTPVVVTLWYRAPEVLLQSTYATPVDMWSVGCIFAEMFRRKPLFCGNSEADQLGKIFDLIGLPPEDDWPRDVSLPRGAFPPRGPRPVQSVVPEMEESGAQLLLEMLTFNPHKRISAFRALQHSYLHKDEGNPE
Sequence of CDK4/CCND3 (P30281 whole entry partner): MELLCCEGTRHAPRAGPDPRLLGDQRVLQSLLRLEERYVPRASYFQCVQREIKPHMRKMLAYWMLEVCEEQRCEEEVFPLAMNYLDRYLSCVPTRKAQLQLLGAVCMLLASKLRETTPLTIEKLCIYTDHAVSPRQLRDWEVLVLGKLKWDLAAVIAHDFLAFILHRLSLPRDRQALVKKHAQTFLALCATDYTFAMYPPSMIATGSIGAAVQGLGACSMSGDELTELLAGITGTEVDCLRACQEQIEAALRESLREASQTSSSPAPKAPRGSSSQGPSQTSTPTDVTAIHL

With `CCN[S@](=N)(=O)c1ccc(Nc2cc3c(-c4ccc5c(cnn5CC(O)(C(F)(F)F)C(F)(F)F)c4C)nccc3cn2)cc1` [Example 682, (S)-N-ethyl-4-((5-(4-methyl-1-(3,3,3-trifluoro-2-hydroxy-2-(trifluoromethyl)propyl)-1H-indazol-5-yl)-2,6-naphthyridin-3-yl)amino)benzenesulfonimidamide] the IC50 (CDK2/CCNE1; [1]) was < 25 nM, the IC50 (CDK1/CCNB1; [2]) was > 250 nM and the IC50 (CDK4/CCND3; [3]) was 25 to 250 nM. The IC50 (CDK6/CCND1; [4]) was > 250 nM.
For `N=S(=O)(c1ccc(Nc2cc3c(C#Cc4cnc5c(c4)NC(=O)CO5)nccc3cn2)cc1)C1CCC1` (stereo not drawn) [Example 686, 7-((7-((4-(cyclobutanesulfonimidoyl)phenyl)amino)-2,6-naphthyridin-1-yl)ethynyl)-1H-pyrido[2,3-b][1,4]oxazin-2(3H)-one], the IC50 (CDK2/CCNE1; [1]) was < 25 nM, the IC50 (CDK1/CCNB1; [2]) was > 250 nM and the IC50 (CDK4/CCND3; [3]) was 25 to 250 nM. For the same compound, the IC50 (CDK6/CCND1; [5]) was 25 to 250 nM.
With `CC1(C)C(=O)Nc2cc(C#Cc3nccc4cnc(Nc5ccc([S@@](=N)(=O)NC6CCC6)cc5)cc34)ccc21` [Example 687, (S)-N-cyclobutyl-4-((5-((3,3-dimethyl-2-oxoindolin-6-yl)ethynyl)-2,6-naphthyridin-3-yl)amino)benzenesulfonimidamide] the IC50 (CDK2/CCNE1; [1]) was < 25 nM, the IC50 (CDK1/CCNB1; [6]) was 25 to 250 nM and the IC50 (CDK4/CCND3; [3]) was 25 to 250 nM. It also gave an IC50 (CDK6/CCND1; [5]) of 25 to 250 nM.
For `CNS(=O)(=O)c1ccc(Nc2cc3c(-c4ccc5c(cnn5CC(O)(C(F)(F)F)C(F)(F)F)c4C)nccc3cn2)cc1` [Example 696, N-methyl-4-((5-(4-methyl-1-(3,3,3-trifluoro-2-hydroxy-2-(trifluoromethyl)propyl)-1H-indazol-5-yl)-2,6-naphthyridin-3-yl)amino)benzenesulfonamide], the IC50 (CDK2/CCNE1; [1]) was < 25 nM, the IC50 (CDK1/CCNB1; [2]) was > 250 nM and the IC50 (CDK4/CCND3; [7]) was > 250 nM. The IC50 (CDK6/CCND1; [4]) was > 250 nM.
`Cc1c(-c2nccc3cnc(Nc4ccc(S(=O)(=O)N(c5ncccn5)C5CC5)cc4)cc23)ccc2c1cnn2CC(O)(C(F)(F)F)C(F)(F)F` [Example 698, N-cyclopropyl-4-((5-(4-methyl-1-(3,3,3-trifluoro-2-hydroxy-2-(trifluoromethyl)propyl)-1H-indazol-5-yl)-2,6-naphthyridin-3-yl)amino)-N-(pyrimidin-2-yl)benzenesulfonamide] was tested, and the IC50 (CDK2/CCNE1; >250 nM, read-out: CDK2/CCNE IC50, >250 nM) was > 250 nM, the IC50 (CDK1/CCNB1; [2]) was > 250 nM and the IC50 (CDK4/CCND3; [7]) was > 250 nM. For the same compound, the IC50 (CDK6/CCND1; [4]) was > 250 nM.
For `CS(=O)(=O)c1ccc(Nc2cc3c(C#CC4(O)CCCNC4)nccc3cn2)cc1` (stereo not drawn) [Example 699, 3-((7-((4-(methylsulfonyl)phenyl)amino)-2,6-naphthyridin-1-yl)ethynyl)piperidin-3-ol], the IC50 (CDK2/CCNE1; [1]) was < 25 nM, the IC50 (CDK1/CCNB1; [2]) was > 250 nM and the IC50 (CDK4/CCND3; [3]) was 25 to 250 nM. The IC50 (CDK6/CCND1; [4]) was > 250 nM.
In the case of `COc1cnc(NS(=O)(=O)c2ccc(Nc3cc4c(-c5ccc6c(cnn6CC(O)(C(F)(F)F)C(F)(F)F)c5C)nccc4cn3)cc2)cc1N1CCOCC1` [Example 700, N-(5-methoxy-4-morpholinopyridin-2-yl)-4-((5-(4-methyl-1-(3,3,3-trifluoro-2-hydroxy-2-(trifluoromethyl)propyl)-1H-indazol-5-yl)-2,6-naphthyridin-3-yl)amino)benzenesulfonamide], the IC50 (CDK2/CCNE1; [1]) is reported as < 25 nM, the IC50 (CDK1/CCNB1; [2]) is reported as > 250 nM and the IC50 (CDK4/CCND3; [7]) is reported as > 250 nM. The IC50 (CDK6/CCND1; [4]) was > 250 nM.
With `Cc1c(-c2nccc3cnc(Nc4ccc(NS(=O)(=O)c5ncccn5)cc4)cc23)ccc2c1cnn2CC(C)(C)O` [Example 705, N-(4-((5-(1-(2-hydroxy-2-methylpropyl)-4-methyl-1H-indazol-5-yl)-2,6-naphthyridin-3-yl)amino)phenyl)pyrimidine-2-sulfonamide] the IC50 (CDK2/CCNE1; [1]) was < 25 nM, the IC50 (CDK1/CCNB1; [2]) was > 250 nM and the IC50 (CDK4/CCND3; [3]) was 25 to 250 nM. For the same compound, the IC50 (CDK6/CCND1; [5]) was 25 to 250 nM.
For `Cc1ccc(NS(=O)(=O)c2ccc(Nc3cc4c(-c5ccc6c(cnn6CC(O)(C(F)(F)F)C(F)(F)F)c5C)nccc4cn3)cc2)cc1C(C)(C)O` [Example 708, N-(3-(2-hydroxypropan-2-yl)-4-methylphenyl)-4-((5-(4-methyl-1-(3,3,3-trifluoro-2-hydroxy-2-(trifluoromethyl)propyl)-1H-indazol-5-yl)-2,6-naphthyridin-3-yl)amino)benzenesulfonamide], the IC50 (CDK2/CCNE1; [8]) was 25 to 250 nM, the IC50 (CDK1/CCNB1; [2]) was > 250 nM and the IC50 (CDK4/CCND3; [7]) was > 250 nM. The IC50 (CDK6/CCND1; [4]) was > 250 nM.
In the case of `Cc1c(-c2nccc3cnc(Nc4ccc(S(=O)(=O)Nc5ccccn5)cc4)cc23)ccc2c1cnn2CC(O)(C(F)(F)F)C(F)(F)F` [Example 716, 4-((5-(4-methyl-1-(3,3,3-trifluoro-2-hydroxy-2-(trifluoromethyl)propyl)-1H-indazol-5-yl)-2,6-naphthyridin-3-yl)amino)-N-(pyridin-2-yl)benzenesulfonamide], the IC50 (CDK2/CCNE1; [1]) is reported as < 25 nM, the IC50 (CDK1/CCNB1; [2]) is reported as > 250 nM and the IC50 (CDK4/CCND3; [7]) is reported as > 250 nM. For the same compound, the IC50 (CDK6/CCND1; [4]) was > 250 nM.
`CC[C@@H](C)NS(=O)(=O)c1ccc(Nc2cc3c(-c4ccc5c(cnn5CC(C)(C)O)c4C)nccc3cn2)cc1` [Example 721, (R)-N-(sec-butyl)-4-((5-(1-(2-hydroxy-2-methylpropyl)-4-methyl-1H-indazol-5-yl)-2,6-naphthyridin-3-yl)amino)benzenesulfonamide] was tested, and the IC50 (CDK2/CCNE1; [1]) was < 25 nM, the IC50 (CDK1/CCNB1; [2]) was > 250 nM and the IC50 (CDK4/CCND3; [7]) was > 250 nM. For the same compound, the IC50 (CDK6/CCND1; [4]) was > 250 nM.
For `CN1CCN(c2cc(Nc3cc4c(C#Cc5ccc(=O)[nH]n5)nccc4cn3)cnc2O)CC1` [Example 723, 6-((7-((6-hydroxy-5-(4-methylpiperazin-1-yl)pyridin-3-yl)amino)-2,6-naphthyridin-1-yl)ethynyl)pyridazin-3(2H)-one], the IC50 (CDK2/CCNE1; [8]) was 25 to 250 nM, the IC50 (CDK1/CCNB1; [2]) was > 250 nM and the IC50 (CDK4/CCND3; [7]) was > 250 nM. The IC50 (CDK6/CCND1; [4]) was > 250 nM.
With `Cc1c(-c2nccc3cnc(Nc4ccc([S@@](C)(=N)=O)cc4)cc23)ccc2c1cnn2CC(O)(C(F)(F)F)C(F)(F)F` [Example 724, (S)-1,1,1,3,3,3-hexafluoro-2-((4-methyl-5-(7-((4-(S-methylsulfonimidoyl)phenyl)amino)-2,6-naphthyridin-1-yl)-1H-indazol-1-yl)methyl)propan-2-ol] the IC50 (CDK2/CCNE1; [1]) was < 25 nM, the IC50 (CDK1/CCNB1; [2]) was > 250 nM and the IC50 (CDK4/CCND3; [3]) was 25 to 250 nM. For the same compound, the IC50 (CDK6/CCND1; [5]) was 25 to 250 nM.
`Cc1c(-c2nccc3cnc(Nc4ccc([S@](C)(=N)=O)cc4)cc23)ccc2c1cnn2CC(O)(C(F)(F)F)C(F)(F)F` [Example 725, (R)-1,1,1,3,3,3-hexafluoro-2-((4-methyl-5-(7-((4-(S-methylsulfonimidoyl)phenyl)amino)-2,6-naphthyridin-1-yl)-1H-indazol-1-yl)methyl)propan-2-ol] was tested, and the IC50 (CDK2/CCNE1; [1]) was < 25 nM, the IC50 (CDK1/CCNB1; [2]) was > 250 nM and the IC50 (CDK4/CCND3; [3]) was 25 to 250 nM. It also gave an IC50 (CDK6/CCND1; [5]) of 25 to 250 nM.
For `Cc1c(-c2nccc3cnc(Nc4ccc(S(=O)(=O)N(C)c5ncccn5)cc4)cc23)ccc2c1cnn2CC(O)(C(F)(F)F)C(F)(F)F` [Example 732, N-methyl-4-((5-(4-methyl-1-(3,3,3-trifluoro-2-hydroxy-2-(trifluoromethyl)propyl)-1H-indazol-5-yl)-2,6-naphthyridin-3-yl)amino)-N-(pyrimidin-2-yl)benzenesulfonamide], the IC50 (CDK2/CCNE1; [8]) was 25 to 250 nM, the IC50 (CDK1/CCNB1; [2]) was > 250 nM and the IC50 (CDK4/CCND3; [7]) was > 250 nM. For the same compound, the IC50 (CDK6/CCND1; [4]) was > 250 nM.
In the case of `CCN(c1ncccn1)S(=O)(=O)c1ccc(Nc2cc3c(-c4ccc5c(cnn5CC(C)(C)O)c4C)nccc3cn2)cc1` [Example 733, N-ethyl-4-((5-(1-(2-hydroxy-2-methylpropyl)-4-methyl-1H-indazol-5-yl)-2,6-naphthyridin-3-yl)amino)-N-(pyrimidin-2-yl)benzenesulfonamide], the IC50 (CDK2/CCNE1; [1]) is reported as < 25 nM, the IC50 (CDK1/CCNB1; [2]) is reported as > 250 nM and the IC50 (CDK4/CCND3; [7]) is reported as > 250 nM. For the same compound, the IC50 (CDK6/CCND1; [5]) was 25 to 250 nM.
With `Cc1c(-c2nccc3cnc(Nc4ccc(NS(=O)(=O)c5cccc(N6CCNCC6)c5)cc4)cc23)ccc2c1cnn2CC(C)(C)O` [Example 752, N-(4-((5-(1-(2-hydroxy-2-methylpropyl)-4-methyl-1H-indazol-5-yl)-2,6-naphthyridin-3-yl)amino)phenyl)-3-(piperazin-1-yl)benzenesulfonamide] the IC50 (CDK2/CCNE1; [1]) was < 25 nM, the IC50 (CDK1/CCNB1; [2]) was > 250 nM and the IC50 (CDK4/CCND3; [7]) was > 250 nM. The IC50 (CDK6/CCND1; [4]) was > 250 nM.
In the case of `Cc1c(-c2nccc3cnc(Nc4ccc(S(=O)(=O)Nc5ccc(N(C)C)nn5)cc4)cc23)ccc2c1cnn2CC(C)(C)O` [Example 765, N-(6-(dimethylamino)pyridazin-3-yl)-4-((5-(1-(2-hydroxy-2-methylpropyl)-4-methyl-1H-indazol-5-yl)-2,6-naphthyridin-3-yl)amino)benzenesulfonamide], the IC50 (CDK2/CCNE1; [1]) is reported as < 25 nM, the IC50 (CDK1/CCNB1; [6]) is reported as 25 to 250 nM and the IC50 (CDK4/CCND3; [3]) is reported as 25 to 250 nM. It also gave an IC50 (CDK6/CCND1; [5]) of 25 to 250 nM.

Source: US20260325533A1, “CDK INHIBITOR COMPOUNDS” (ALEKSIA THERAPEUTICS, INC., priority 2023, published 2026)
